# Measurements published in ChEMBL document CHEMBL3632486, “Interaction of carbonic anhydrase isozymes I, II, and IX with some pyridine and phenol hydrazinecarbothioamide derivatives” (Bioorg Med Chem Lett, 2015).
# How the values were obtained:
# Carbonic anhydrase 9 [1] = target: T1, Carbonic anhydrase 9 (Homo sapiens, UniProt Q16790)
# Description: Inhibition of human carbonic anhydrase 9 incubated for 15 mins prior to testing by stopped flow CO2 hydration assay
# Carbonic anhydrase 2 = Carbonic anhydrase 2 (Homo sapiens, UniProt P00918); experiment: Inhibition of human carbonic anhydrase 2 incubated for 15 mins prior to testing by stopped flow CO2 hydration assay
# Carbonic anhydrase 1 = Carbonic anhydrase 1 (Homo sapiens, UniProt P00915); experiment: Inhibition of human carbonic anhydrase 1 incubated for 15 mins prior to testing by stopped flow CO2 hydration assay
# Carbonic anhydrase 9 [2] = target: T1, Carbonic anhydrase 9; experiment: Activation of human carbonic anhydrase 9 incubated for 15 mins prior to testing by stopped flow CO2 hydration assay
# Sequence of Carbonic anhydrase 1 (P00915 whole entry): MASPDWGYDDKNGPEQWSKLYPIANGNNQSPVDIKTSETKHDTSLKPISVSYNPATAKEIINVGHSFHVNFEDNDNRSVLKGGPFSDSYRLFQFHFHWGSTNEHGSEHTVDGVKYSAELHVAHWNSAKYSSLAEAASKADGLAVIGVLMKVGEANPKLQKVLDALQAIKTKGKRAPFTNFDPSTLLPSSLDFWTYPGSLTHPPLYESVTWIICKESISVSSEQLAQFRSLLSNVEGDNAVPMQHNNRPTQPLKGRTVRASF
SMILES,Ki (Carbonic anhydrase 9 [1]) [nM],Ki (Carbonic anhydrase 2) [nM],Ki (Carbonic anhydrase 1) [nM],Activity (Carbonic anhydrase 9 [2]) [µM]
O=C(NNC(=S)Nc1ccccc1)c1ccccc1O,1220,> 10000,,
Cc1ccc(NC(=S)NNC(=O)c2ccccc2O)cc1,,> 10000,,
O=C(NNC(=S)NCc1ccccc1)c1ccncc1,964,,,0.81
NC(=S)NNC(=O)c1ccncc1,,,,3.61
Cc1ccc(NC(=S)NNC(=O)c2ccncc2)cc1,1120,,,2.57

# The next lines start with the values.
Ki (Carbonic anhydrase 9 [1]) [nM],Ki (Carbonic anhydrase 2) [nM],Ki (Carbonic anhydrase 1) [nM],Activity (Carbonic anhydrase 9 [2]) [µM],SMILES
760,> 10000,,,C=CCNC(=S)NNC(=O)c1ccccc1O
878,> 10000,,,CCNC(=S)NNC(=O)c1ccccc1O
970,,871,12.3,C=CCNC(=S)NNC(=O)c1ccncc1
317,,34.1,1.42,O=C(NNC(=S)Nc1ccccc1)c1ccncc1
980,> 10000,,,O=C(NNC(=S)NCc1ccccc1)c1ccccc1O
884,,96.9,12.5,CCN=C(S)NNC(=O)c1ccncc1
1010,> 10000,,,NC(=S)NNC(=O)c1ccccc1O
